Measured values: ChEMBL document CHEMBL1155229, “Physical binding pocket induction for affinity prediction” (J Med Chem, 2009)
pKd: −log10 of the molar value.

What follows are molecules tested against T1, 5-hydroxytryptamine receptor 1A (Homo sapiens, UniProt P08908) (assay: Binding affinity to 5HT1A receptor). Settings: read-out: Kd.
T1 sequence (P08908 whole entry): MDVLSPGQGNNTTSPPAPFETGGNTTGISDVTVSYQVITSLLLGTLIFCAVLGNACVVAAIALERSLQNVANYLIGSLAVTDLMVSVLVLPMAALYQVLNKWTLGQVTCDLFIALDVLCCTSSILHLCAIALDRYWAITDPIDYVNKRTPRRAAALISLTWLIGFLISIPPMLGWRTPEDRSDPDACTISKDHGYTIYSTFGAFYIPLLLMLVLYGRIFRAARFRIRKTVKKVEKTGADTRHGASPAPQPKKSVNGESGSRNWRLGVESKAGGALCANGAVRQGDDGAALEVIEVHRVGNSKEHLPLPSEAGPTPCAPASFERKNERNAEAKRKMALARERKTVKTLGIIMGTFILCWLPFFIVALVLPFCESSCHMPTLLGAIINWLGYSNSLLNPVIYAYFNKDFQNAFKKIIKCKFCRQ

Molecule `Fc1ccc([C@@H]2CCNC[C@H]2COc2ccc3c(c2)OCO3)cc1` [PAROXETINE] has a pKd of 4.52.

Same assay, conditions: read-out: pKd (converted)

Compared with `CCCN(CCC)[C@H]1CCc2c(F)ccc(O)c2C1`, `CCCN1CC[C@H]2c3c(cccc3OC)CC[C@H]21` is 130-fold lower in Kd: 25.1 nM for the first, 0.2 nM for the second.

Going from `FC(F)(F)c1cccc(C2CNCCO2)c1` (stereo not given) [FLUMEXADOL] to `Clc1cccc(N2CCNCC2)c1` [CHLOROPHENYLPIPERAZINE], the Kd falls from 251 nM to 100 nM (2.5-fold).

First: COc1cccc2c1C[C@H]1CCN(CC3CC3)[C@@H]1C2
Second: COc1cccc2c1C[C@@H]1CCN(CC3CC3)[C@@H]1C2
The Kd of the first is 25-fold lower: 31.6 nM for the first, 794 nM for the second.

First: O=C(NCCN1CCOCC1)c1ccc(Cl)cc1 [MOCLOBEMIDE]
Second: Cc1nc2ccccn2c(=O)c1CCN1CCC(C(=O)c2ccc(F)cc2)CC1 [PIRENPERONE]
The Kd of the first is 2-fold higher: 5010 nM for the first, 2510 nM for the second.

Compared with `COc1ccccc1N1CCN(C[C@@H](C(=O)NC(C)(C)C)c2ccccc2)CC1`, `CCc1nn(CCCN2CCN(c3cccc(Cl)c3)CC2)c(=O)n1CCOc1ccccc1` [NEFAZODONE] is 130-fold higher in Kd: 1.26 nM for the first, 158 nM for the second.

Compared with `Clc1cncc(N2CCNCC2)n1` [MK-212], `O=C1c2ccccc2S(=O)(=O)N1CCCCN1CCN(c2ncccn2)CC1` [IPSAPIRONE] is 200-fold lower in Kd: 794 nM for the first, 3.98 nM for the second.

Compared with `C[C@H]1[C@H](c2ccccc2)OCCN1C` [PHENDIMETRAZINE], `C=CCN1CC[C@H]2c3ccccc3CC[C@H]21` is 13000-fold lower in Kd: 12600 nM for the first, 1 nM for the second.

Compared with `CN(C)CCc1c[nH]c2ccc(O)cc12` [BUFOTENINE], `CCCN1CC[C@@H]2c3c(cccc3OC)CC[C@@H]21` is 63-fold higher in Kd: 3.16 nM for the first, 200 nM for the second.

Compared with `Fc1ccc([C@@H]2CCNC[C@H]2COc2ccc3c(c2)OCO3)cc1` [PAROXETINE], `C=CCN1C[C@H]2c3c(O)cccc3CC[C@H]21` is far lower in Kd: 31600 nM for the first, 0.316 nM for the second.

`CN1C[C@@H](NS(=O)(=O)N(C)C)C[C@@H]2c3cccc4c3c(cn4C)C[C@H]21` [MESULERGINE] showed a Kd of 158 nM.
